# Data from patent US9938258B2 (Karyopharm Therapeutics Inc., priority 2012, dated 2018).
# Counter-ions that a name gives are not always drawn. Like-named read-outs stand apart in the source and are kept apart here.
# Tests used:
# [1] = test system: MS751 cells; test: MTT cell proliferation assay, MS751; assay type: cell-based, human; settings: Homo sapiens
# Method in brief: (§1)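 Read-out: MTT reduction to formazan, solubilised and measured at 490 nm after ~4 h with MTT; inhibition (%) = (1-(ODo/OD))×100 relative to negative control. Seeding was 5,000-10,000 cells/well with overnight attachment. Eight test concentrations spanned 1 nM-30 μM; mostly duplicate, mean ± SE.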
# [2] = test system: Z138 cells; test: MTT cell proliferation assay, Z138; assay type: cell-based; settings: Homo sapiens
# Method in brief: as §1
# [3] = test system: 3T3 cells; test: MTT cell proliferation assay, 3T3; assay type: cell-based, mouse; settings: Mus musculus
# Method in brief: as §1
# [4] = test system: PAK4 interactors and downstream proteins; test: Immunoblots of PAK4 interactors and downstream proteins in U2OS cells; assay type: cell-based, human; settings: 72 hours
# Protocol: Immunoblots were used to measure the effects of exemplary compounds on protein steady-state levels and phophorylation of PAK4 interactor and downstream proteins. Specifically, U2OS (osteosarcoma) cells were split and plated on day 1. After overnight attachment to the tissue culture plate, cells were treated with either DMSO (0), 37 nM, 111 nM, 333 nM, 1 μM, or 3 μM Compound 246 for 72 hours. Cells were collected, washed and lysed in RIPA buffer. After obtaining the protein concentration by BCA assay, lysates were boiled in loading buffer and run on SDS-PAGE. The gels were transferred to nitrocellulose membranes and blotted with antibodies raised against phosphor-PAK4, PAK4, phophos-beta-catenin, beta-catenin, GEF-H1, phospho-Akt, Akt, phospho-ERK1/2, ERK1/2, phospho-cofilin, cofilin, phospho-histone H3, histone H3, cyclin D1, Mcl-1, Bcl-2, p21, survivin, caspase 8, caspase 3, PARP, and beta-actin (loading control).
# In another experiment, U2OS (osteosarcoma) cells were split and plated on day 1. After overnight attachment to the tissue culture plate, cells were treated with DMSO (Ct), 0.5 μM, or 5 μM of Compound 124, 369, 226, 246, or 907 for 72 hours. Cells were collected, washed and lysed in RIPA buffer. After obtaining the protein concentration by BCA assay, lysates were boiled in loading buffer and run on SDS-PAGE. The gels were transferred to nitrocellulose membranes and blotted with antibodies raised against phophos-beta-catenin, cyclin D1, PAK4, phospho-cofilin, and beta-actin (loading control).
# [5] = test system: Z-138 mantle cell lymphoma cancer xenograft; test: Z-138 mouse xenograft model; assay type: in vivo; settings: QDx5/week for 4 weeks, SCID mice with Z-138 tumors; for tumor growth (mean tumor volume): versus cyclophosphamide 80 mg/kg Days 1-3
# Protocol: The oncological impact of selected substituted 2,3-dihydrobenzofuranyl compounds was tested using a Z-138 mantle cell lymphoma cancer xenograft model in SCID mice. SCID Mice were inoculated s.c. in both flanks with 5×10^6 Z-138 cells. When the tumors reached a mean size of between 100 and 200 mm^3, mice were randomly and prospectively divided. Tumor-bearing mice were treated with vehicle, cyclophosphamide (positive control) or Compound 123 on M-F (QDx5/week) for 4 weeks. Compound 123 was administered orally (PO) at initial doses of 30 and 100 mg/kg five times a week. Cyclophosphamide was given as a positive control at 80 mg/kg on Days 1-3. Animals' weights and conditions were recorded daily, and tumors were measured on Mondays-Wednesdays-Fridays.
# [6] = test system: Z-138 cells; test: Cell cycle arrest (BrdU / 7-AAD flow cytometry); assay type: cell-based; settings: 1 μM for 1, 2 and 3 days
# Protocol: Z-138 cells (mantle cell lymphoma) were plated at a density of 1×10^6 cells/well and treated with no drug (DMSO control) or with 1 μM Compound 123 for 1, 2, and 3 days in culture. For each time point, cells were treated with 10 μM BrdU for 2 hours, then collected by centrifugation. Cells were subsequently washed, fixed, and then stained for BrdU and total DNA (7-AAD). BrdU incorporation and cell cycle analysis were analyzed by flow cytometry at the Dana Farber Cancer Institute on a BD Fortessa Analyzer. Data was then analyzed using FCS Express 4 software.
# FIGS. 1A, 1B, 1C and 1D are single-cell scatter plots and show BrdU versus 7-AAD for Z138 cells treated with no drug (FIG. 1A) or treated with 1 μM Compound 123 for 1 day (FIG. 1B), 2 days (FIG. 1C), or 3 days (FIG. 1D). Graphs showing cell count versus 7-AAD intensities are depicted below their corresponding scatter plots.
# [7] = test system: M24 cell line; test: MTT cell proliferation assay, M24; assay type: cell-based; settings: Homo sapiens, incubation approximately 64-72 hours
# Protocol: (§2) The MTT cell proliferation assay was used to study the cytotoxic properties of the compounds. The assay was performed according to the method described by Roche Molecular Biochemicals, with minor modifications. The assay is based on the cleavage of the tetrazolium salt, MTT, in the presence of an electron-coupling reagent. The water-insoluble formazan salt produced must be solubilized in an additional step. Cells grown in a 96-well tissue culture plate were incubated with the MTT solution for approximately 4 hours. After this incubation period, a water-insoluble formazan dye formed. After solubilization, the formazan dye was quantitated using a scanning multi-well spectrophotometer (ELISA reader). […] The cells were seeded at 5,000-10,000 cells in each well of 96-well plate in 100 μL of fresh culture medium and were allowed to attach overnight. The stock solutions of the compounds were diluted in 100 μL cell culture medium to obtain eight concentrations of each test compound, ranging from 1 nM to 30 μM. […] All optical densities were measured at 490 nm using a Vmax Kinetic Microplate Reader (Molecular Devices). In most cases, the assay was performed in duplicate and the results were presented as a mean percent inhibition to the negative control±SE. The following formula was used to calculate the percent of inhibition: Inhibition (%)=(1-(ODo/OD)) ×100. […]
# [8] = test system: U2OS cell line; test: MTT cell proliferation assay, U2OS; assay type: cell-based; settings: Homo sapiens, incubation approximately 64-72 hours
# Protocol: as §2
# [9] = test system: MM1S cell line; test: MTT cell proliferation assay, MM1S; assay type: cell-based; settings: Homo sapiens, MM1.S, incubation approximately 64-72 hours
# Protocol: (§3) The MTT cell proliferation assay was used to study the cytotoxic properties of the compounds. The assay was performed according to the method described by Roche Molecular Biochemicals, with minor modifications. The assay is based on the cleavage of the tetrazolium salt, MTT, in the presence of an electron-coupling reagent. The water-insoluble formazan salt produced must be solubilized in an additional step. Cells grown in a 96-well tissue culture plate were incubated with the MTT solution for approximately 4 hours. After this incubation period, a water-insoluble formazan dye formed. After solubilization, the formazan dye was quantitated using a scanning multi-well spectrophotometer (ELISA reader). […] The cells were seeded at 5,000-10,000 cells in each well of 96-well plate in 100 μL of fresh culture medium and were allowed to attach overnight. The stock solutions of the compounds were diluted in 100 μL cell culture medium to obtain eight concentrations of each test compound, ranging from 1 nM to 30 μM. […] All optical densities were measured at 490 nm using a Vmax Kinetic Microplate Reader (Molecular Devices). In most cases, the assay was performed in duplicate and the results were presented as a mean percent inhibition to the negative control±SE. The following formula was used to calculate the percent of inhibition: Inhibition (%)=(1-(ODo/OD)) ×100.
# (§4) The M24 cell line is derived from human melanoma cells. The U2OS cell line is a human osteosarcoma cell line expressing wild type p53 and Rb, but lacking p16. The MM1S cell line is a multiple myeloma cell line; the parent cell line, MM.1, was established from peripheral blood of a multiple myeloma patient who had become resistant to steroid-based therapy. The RPMI8226 cell line is derived from human B lymphocyte cells. NHDF cells are normal human dermal fibroblast cells. The MRC-5 cell line is derived from normal lung tissue of a fetus. The LN18 cell line is a human malignant glioma cell line. The DU-145 cell line is a human prostate cancer cell line. A549 cells are human adenocarcinomic human alveolar basal epithelial cells. […]
# [10] = test system: RPMI8226 cell line; test: MTT cell proliferation assay, RPMI8226; assay type: cell-based; settings: Homo sapiens, RPMI-8226, incubation approximately 64-72 hours
# Protocol: as §2
# [11] = test system: NHDF cells; test: MTT cell proliferation assay, NHDF; assay type: cell-based; settings: Homo sapiens, incubation approximately 64-72 hours
# Protocol: as §2
# [12] = test system: HL-60 cells; test: MTT cell proliferation assay, HL-60; assay type: cell-based; settings: Homo sapiens, incubation approximately 64-72 hours
# Protocol: as §2
# [13] = test system: Hep G2 cells; test: MTT cell proliferation assay, Hep G2; assay type: cell-based; settings: Homo sapiens, HepG2, incubation approximately 64-72 hours
# Protocol: as §3
# The M24 cell line is derived from human melanoma cells. The U2OS cell line is a human osteosarcoma cell line expressing wild type p53 and Rb, but lacking p16. The MM1S cell line is a multiple myeloma cell line; the parent cell line, MM.1, was established from peripheral blood of a multiple myeloma patient who had become resistant to steroid-based therapy. The RPMI8226 cell line is derived from human B lymphocyte cells. NHDF cells are normal human dermal fibroblast cells. The MRC-5 cell line is derived from normal lung tissue of a fetus. The LN18 cell line is a human malignant glioma cell line. The DU-145 cell line is a human prostate cancer cell line. A549 cells are human adenocarcinomic human alveolar basal epithelial cells. The MOLT4 cell line is a human acute lymphoblastic leukemia cell line. The THP1 cell line is a human leukemic monocytic cell line derived from peripheral blood. The OCIAML5 cell line is a human acute myeloid leukemia cell line. The MDA-MB-231 cell line is a human breast adenocarcinoma cell line. The MDA-MB-468 cell line is a human breast carcinoma cell line. HL-60 cells are human promyelocytic leukemia cells. Hep G2 cells are human hepatocellular carcinoma cells. HEP 3B cells are human hepatocellular carcinoma cells. The DLD-1 cell line is a colorectal adenocarcinoma cell line. The HCT-15 cell line is a human colon carcinoma cell line. The Colo-205 cell line is derived from a human adenocarcinoma of the colon. […]
# [14] = test system: HEP 3B cells; test: MTT cell proliferation assay, HEP 3B; assay type: cell-based; settings: Homo sapiens, Hep3B, incubation approximately 64-72 hours
# Protocol: as §3, §4
# [15] = MS751, MS751 cells, approximately 64-72 hours incubation, read-out: MTT Assay IC50, MS751
# [16] = Z-138, Z138 cells, approximately 64-72 hours incubation, read-out: MTT Assay IC50, Z138
# [17] = NIH3T3, 3T3 cells, approximately 64-72 hours incubation, read-out: MTT Assay IC50, 3T3
smiles,measurement,setting,value
"CC(=O)c1ccc(-c2cc(Cl)c3c(c2)CC(CNC(=O)CCc2cccnc2)O3)s1 (stereo not drawn) [Compound 369, N-((5-(5-Acetylthiophen-2-yl)-7-chloro-2,3-dihydrobenzofuran-2-yl)methyl)-3-(pyridin-3-yl)propanamide]",IC50,[1]; [15],100 to 5000 nM
same,IC50,[2]; [16],100 to 5000 nM
same,IC50,[3]; [17],5000 to 30000 nM
same,PAK4 total protein,[4]; 0.5 μM or 5 μM,decrease
same,phosphorylation of PAK4 signaling proteins beta-catenin and cofilin,[4]; 0.5 μM or 5 μM,decreases in phosphorylation
"CC(=O)c1ccc(-c2cc(Cl)c3c(c2)CC(CNC(=O)/C=C/c2cccnc2)O3)s1 (single isomer, unassigned) [Compound 123, (E)-N-((5-(5-acetylthiophen-2-yl)-7-chloro-2,3-dihydrobenzofuran-2-yl)methyl)-3-(pyridin-3-yl)acrylamide]",IC50,"[1]; MS751, MS751 cells, eight concentrations 1 nM to 30 μM, incubation approximately 64-72 hours, read-out: MTT Assay IC50, MS751",< 100 nM
same,IC50,"[2]; Z-138, Z138 cells, eight concentrations 1 nM to 30 μM, incubation approximately 64-72 hours, read-out: MTT Assay IC50, Z138",< 100 nM
same,IC50,"[3]; NIH3T3, 3T3 cells, eight concentrations 1 nM to 30 μM, incubation approximately 64-72 hours, read-out: MTT Assay IC50, 3T3",100 to 5000 nM
same,tumor growth (mean tumor volume),[5]; 30 mg/kg PO,inhibited tumor growth with an efficacy better than that of cyclophosphamide
same,tumor growth (mean tumor volume),[5]; 100 mg/kg PO,inhibited tumor growth with an efficacy similar to cyclophosphamide
same,tolerability (mean percent weight change),[5]; 30 and 100 mg/kg PO,tolerated at both doses
same,G1,[6],no change
same,G2/M,[6],increased
same,S phase,[6],significant decrease
same,sub-G1 fraction,[6],small increase
"Nc1ccc(CNC(=O)/C=C/C2Cc3cc(-c4ccc(C(=O)N5CCOCC5)cc4)cc(Cl)c3O2)cn1 (stereo not drawn) [Compound 907, (E)-N-((6-aminopyridin-3-yl)methyl)-3-(7-chloro-5-(4-(morpholine-4-carbonyl)phenyl)-2,3-dihydrobenzofuran-2-yl)acrylamide hydrochloride]",IC50,[1]; [15],< 100 nM
same,IC50,[2]; [16],< 100 nM
same,IC50,[3]; [17],5000 to 30000 nM
same,PAK4 total protein,[4]; 0.5 μM or 5 μM,decrease
same,phosphorylation of PAK4 signaling proteins beta-catenin and cofilin,[4]; 0.5 μM or 5 μM,decreases in phosphorylation
"Nc1ccc(/C=C/C(=O)NCC2Cc3cc(-c4ccc(C(=O)N5CCNCC5)cc4)cc(Cl)c3O2)cn1 (stereo not drawn) [Compound 246, (E)-3-(6-aminopyridin-3-yl)-N-((7-chloro-5-(4-(piperazine-1-carbonyl)phenyl)-2,3-dihydrobenzofuran-2-yl)methyl)acrylamide dihydrochloride]",IC50,"[1]; MS751, read-out: MTT Assay IC50, MS751",< 100 nM
same,IC50,"[2]; Z-138, read-out: MTT Assay IC50, Z138",< 100 nM
same,IC50,"[3]; NIH3T3, read-out: MTT Assay IC50, 3T3",100 to 5000 nM
same,IC50,[7],100 to 5000 nM
same,IC50,[8],< 100 nM
same,IC50,[9],< 100 nM
same,IC50,[10],100 to 5000 nM
same,IC50,[11],100 to 5000 nM
same,IC50,[12],100 to 5000 nM
same,IC50,[13],100 to 5000 nM
same,IC50,[14],< 100 nM
same,PAK4 total protein,[4]; 37 nM to 3 μM,decrease
same,"cleavage of apoptosis markers caspase 3, caspase 8 and PARP",[4]; 37 nM to 3 μM,increases in cleavage
same,"phosphorylation or total level of PAK4 signaling proteins (Akt, ERK1/2, beta-catenin, cofilin, p21, cyclin D1)",[4]; 37 nM to 3 μM,decrease in phosphorylation or the total level
same,PAK4 total protein,[4]; 0.5 μM or 5 μM,decrease
same,phosphorylation of PAK4 signaling proteins beta-catenin and cofilin,[4]; 0.5 μM or 5 μM,decreases in phosphorylation
"Nc1ccc(/C=C/C(=O)NCC2Cc3cc(-c4cnc(C(=O)N5CCOCC5)nc4)cc(Cl)c3O2)cn1 (stereo not drawn) [Compound 323, (E)-3-(6-aminopyridin-3-yl)-N-((7-chloro-5-(2-(morpholine-4-carbonyl)pyrimidin-5-yl)-2,3-dihydrobenzofuran-2-yl)methyl)acrylamide]",IC50,[1]; [15],100 to 5000 nM
same,IC50,[2]; [16],100 to 5000 nM
same,IC50,[3]; [17],5000 to 30000 nM
